# In paper PMC11207571, “Applicability of MDR1 Overexpressing Abcb1KO-MDCKII Cell Lines for Investigating In Vitro Species Differences and Brain Penetration Prediction” (Pharmaceutics, 2024):
# Legend:
# rat Mdr1a [1] = target: T1, rat Mdr1a (Rattus norvegicus, UniProt Q6PSM0); test: Inhibition of 3H-digoxin or 3H-quinidine bidirectional transport in rMDR1 cells; format: cell-based; parameters: rat Mdr1a (NM_133401.1); expressed in transfected cells; host or cells: Abcb1KO-MDCKII (canine kidney, endogenous Abcb1 knocked out), transduced, single-cell clone; settings: IC50 from ER
# T1 sequence (Q6PSM0 1-1272): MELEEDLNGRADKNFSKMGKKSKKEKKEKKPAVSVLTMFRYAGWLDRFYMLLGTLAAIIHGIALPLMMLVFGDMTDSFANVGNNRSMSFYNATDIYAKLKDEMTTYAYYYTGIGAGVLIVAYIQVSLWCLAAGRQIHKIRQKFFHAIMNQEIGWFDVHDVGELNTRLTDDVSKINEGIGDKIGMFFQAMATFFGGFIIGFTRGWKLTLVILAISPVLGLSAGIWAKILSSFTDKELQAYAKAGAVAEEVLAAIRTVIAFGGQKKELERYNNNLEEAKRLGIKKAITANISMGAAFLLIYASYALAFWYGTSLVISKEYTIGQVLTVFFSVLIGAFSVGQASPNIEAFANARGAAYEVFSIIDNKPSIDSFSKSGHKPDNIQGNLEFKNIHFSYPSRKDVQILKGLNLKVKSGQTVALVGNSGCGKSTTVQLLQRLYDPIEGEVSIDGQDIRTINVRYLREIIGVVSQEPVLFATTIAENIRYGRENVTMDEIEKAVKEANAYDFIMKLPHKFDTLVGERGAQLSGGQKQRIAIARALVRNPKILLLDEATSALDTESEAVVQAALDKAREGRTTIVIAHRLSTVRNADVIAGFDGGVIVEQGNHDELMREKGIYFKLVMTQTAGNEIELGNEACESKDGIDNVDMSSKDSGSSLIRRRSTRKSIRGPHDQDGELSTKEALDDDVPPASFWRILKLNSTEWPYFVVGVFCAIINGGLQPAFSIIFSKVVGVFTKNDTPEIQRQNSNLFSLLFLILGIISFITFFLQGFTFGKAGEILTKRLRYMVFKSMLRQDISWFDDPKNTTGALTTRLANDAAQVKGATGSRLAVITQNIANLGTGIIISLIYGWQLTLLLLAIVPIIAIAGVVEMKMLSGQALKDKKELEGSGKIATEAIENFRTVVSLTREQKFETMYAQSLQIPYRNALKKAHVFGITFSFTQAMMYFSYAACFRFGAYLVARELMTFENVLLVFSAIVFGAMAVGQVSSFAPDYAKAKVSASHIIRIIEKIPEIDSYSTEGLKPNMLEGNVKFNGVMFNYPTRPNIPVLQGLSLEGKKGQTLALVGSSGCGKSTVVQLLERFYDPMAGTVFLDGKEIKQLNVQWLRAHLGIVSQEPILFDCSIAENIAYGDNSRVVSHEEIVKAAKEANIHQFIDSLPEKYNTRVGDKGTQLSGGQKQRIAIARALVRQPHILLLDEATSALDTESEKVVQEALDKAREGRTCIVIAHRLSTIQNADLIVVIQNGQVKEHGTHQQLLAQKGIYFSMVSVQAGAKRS
# cynomolgus monkey Mdr1 [2] = target: T2, cynomolgus monkey Mdr1 (Macaca fascicularis, UniProt Q8HZQ6); test: cell-based
# T2 sequence (Q8HZQ6 1-1283): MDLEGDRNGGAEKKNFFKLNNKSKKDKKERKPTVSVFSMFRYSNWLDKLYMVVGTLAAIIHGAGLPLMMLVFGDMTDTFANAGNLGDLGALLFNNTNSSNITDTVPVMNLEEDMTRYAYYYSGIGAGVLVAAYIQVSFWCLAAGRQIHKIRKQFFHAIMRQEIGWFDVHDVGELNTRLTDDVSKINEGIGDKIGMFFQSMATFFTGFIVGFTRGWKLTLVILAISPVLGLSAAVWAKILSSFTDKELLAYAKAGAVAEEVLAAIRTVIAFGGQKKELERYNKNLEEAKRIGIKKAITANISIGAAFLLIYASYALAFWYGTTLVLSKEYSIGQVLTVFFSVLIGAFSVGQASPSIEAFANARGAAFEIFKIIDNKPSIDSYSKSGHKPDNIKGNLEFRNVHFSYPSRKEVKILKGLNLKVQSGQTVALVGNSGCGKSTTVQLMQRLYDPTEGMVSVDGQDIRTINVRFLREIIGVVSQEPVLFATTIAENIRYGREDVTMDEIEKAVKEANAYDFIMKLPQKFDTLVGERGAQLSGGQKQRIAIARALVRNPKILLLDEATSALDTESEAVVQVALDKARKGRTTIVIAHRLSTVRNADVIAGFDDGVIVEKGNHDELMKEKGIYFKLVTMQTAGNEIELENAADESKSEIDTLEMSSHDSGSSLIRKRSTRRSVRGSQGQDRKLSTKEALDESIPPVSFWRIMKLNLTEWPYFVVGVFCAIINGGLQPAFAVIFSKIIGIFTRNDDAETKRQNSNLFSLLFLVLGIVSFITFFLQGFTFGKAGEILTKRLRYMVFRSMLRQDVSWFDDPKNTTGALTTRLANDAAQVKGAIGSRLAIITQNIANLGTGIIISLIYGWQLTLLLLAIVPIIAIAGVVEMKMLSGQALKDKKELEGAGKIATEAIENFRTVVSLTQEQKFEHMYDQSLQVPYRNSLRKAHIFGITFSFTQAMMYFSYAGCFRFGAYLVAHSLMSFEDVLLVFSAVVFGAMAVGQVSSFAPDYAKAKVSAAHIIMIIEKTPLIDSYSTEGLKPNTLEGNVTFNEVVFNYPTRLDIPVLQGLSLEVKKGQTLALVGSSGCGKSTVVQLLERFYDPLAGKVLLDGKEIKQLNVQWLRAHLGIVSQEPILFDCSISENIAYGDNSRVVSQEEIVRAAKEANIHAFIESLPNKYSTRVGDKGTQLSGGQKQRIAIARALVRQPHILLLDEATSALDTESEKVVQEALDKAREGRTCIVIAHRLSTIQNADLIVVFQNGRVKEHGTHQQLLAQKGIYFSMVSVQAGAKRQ
# cynomolgus monkey Mdr1 [3] = target: T2, cynomolgus monkey Mdr1; test: Inhibition of 3H-digoxin or 3H-quinidine bidirectional transport in cyMDR1 cells; settings: 60 min, IC50 from ER; for IC50: Inhibition of quinidine transport IC50±SD, cyMDR1, probe 3H-quinidine 0.1 µM
# mouse Mdr1a [4] = target: T3, mouse Mdr1a (Mus musculus, UniProt P21447); test: Inhibition of 3H-digoxin or 3H-quinidine bidirectional transport in mMDR1 cells; format: cell-based; parameters: mouse Mdr1a (NM_011076.3); expressed in transfected cells; host or cells: Abcb1KO-MDCKII (canine kidney, endogenous Abcb1 knocked out), transduced, single-cell clone; settings: IC50 from ER
# T3 sequence (P21447 whole entry): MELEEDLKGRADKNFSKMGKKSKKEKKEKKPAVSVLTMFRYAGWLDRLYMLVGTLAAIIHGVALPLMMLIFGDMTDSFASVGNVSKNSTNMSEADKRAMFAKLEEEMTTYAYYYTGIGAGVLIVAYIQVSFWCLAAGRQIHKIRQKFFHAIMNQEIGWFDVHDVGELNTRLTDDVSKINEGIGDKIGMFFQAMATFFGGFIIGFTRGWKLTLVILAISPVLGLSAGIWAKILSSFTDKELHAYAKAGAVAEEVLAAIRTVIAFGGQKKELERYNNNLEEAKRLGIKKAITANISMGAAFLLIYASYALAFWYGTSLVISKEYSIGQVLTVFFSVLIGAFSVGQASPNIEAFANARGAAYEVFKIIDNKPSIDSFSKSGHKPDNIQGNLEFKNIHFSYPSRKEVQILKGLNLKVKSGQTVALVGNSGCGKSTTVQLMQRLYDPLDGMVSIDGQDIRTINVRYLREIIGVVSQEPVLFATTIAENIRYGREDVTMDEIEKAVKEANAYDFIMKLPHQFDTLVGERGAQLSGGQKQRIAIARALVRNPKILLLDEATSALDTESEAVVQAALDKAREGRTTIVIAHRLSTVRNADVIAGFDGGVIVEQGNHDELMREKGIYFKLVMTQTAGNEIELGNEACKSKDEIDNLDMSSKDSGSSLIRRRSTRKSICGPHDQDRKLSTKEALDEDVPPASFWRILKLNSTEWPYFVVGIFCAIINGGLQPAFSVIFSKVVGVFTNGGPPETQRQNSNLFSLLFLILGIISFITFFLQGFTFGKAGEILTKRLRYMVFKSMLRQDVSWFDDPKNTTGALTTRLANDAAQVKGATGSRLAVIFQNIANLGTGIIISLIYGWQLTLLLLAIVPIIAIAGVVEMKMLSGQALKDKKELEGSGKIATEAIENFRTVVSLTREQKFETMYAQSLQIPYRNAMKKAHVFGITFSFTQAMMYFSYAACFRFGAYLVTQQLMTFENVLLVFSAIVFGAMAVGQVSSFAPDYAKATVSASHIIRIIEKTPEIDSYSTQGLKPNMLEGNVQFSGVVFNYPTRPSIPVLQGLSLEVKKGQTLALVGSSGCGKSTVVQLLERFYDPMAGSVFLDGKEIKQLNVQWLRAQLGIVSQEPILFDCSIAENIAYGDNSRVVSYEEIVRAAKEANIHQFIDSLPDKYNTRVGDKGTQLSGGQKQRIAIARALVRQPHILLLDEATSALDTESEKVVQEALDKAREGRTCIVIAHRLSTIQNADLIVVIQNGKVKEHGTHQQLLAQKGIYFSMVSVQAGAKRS
# mouse Mdr1a [5] = target: T3, mouse Mdr1a; test: Bidirectional transport assay, efflux ratio in Abcb1KO-MDCKII mMDR1 cells; settings: mouse, pH 7.4
# Experimental: (§1) Eluent A consisted of 0.1% formic acid in water, eluent B consisted of 0.1% formic acid in acetonitrile. Then, 10 µL samples were injected into the HPLC-MS/MS system. Mass spectrometric detection was performed in SRM mode, and ion transitions for each analyte were optimized during method development. Samples were analyzed in pools, with each pool containing three to four analytes.
# cynomolgus monkey Mdr1 [6] = target: T2, cynomolgus monkey Mdr1; test: Bidirectional transport assay, efflux ratio in Abcb1KO-MDCKII cyMDR1 cells; settings: cynomolgus monkey, pH 7.4
# Experimental: as §1
# human BCRP = target: T4, human BCRP (Homo sapiens, UniProt Q9UNQ0); test: Bidirectional transport assay, efflux ratio in MDCKII-BCRP cells; settings: for efflux ratio at 120 min, 1 µM: human, pH 7.4
# T4 sequence (Q9UNQ0 1-655): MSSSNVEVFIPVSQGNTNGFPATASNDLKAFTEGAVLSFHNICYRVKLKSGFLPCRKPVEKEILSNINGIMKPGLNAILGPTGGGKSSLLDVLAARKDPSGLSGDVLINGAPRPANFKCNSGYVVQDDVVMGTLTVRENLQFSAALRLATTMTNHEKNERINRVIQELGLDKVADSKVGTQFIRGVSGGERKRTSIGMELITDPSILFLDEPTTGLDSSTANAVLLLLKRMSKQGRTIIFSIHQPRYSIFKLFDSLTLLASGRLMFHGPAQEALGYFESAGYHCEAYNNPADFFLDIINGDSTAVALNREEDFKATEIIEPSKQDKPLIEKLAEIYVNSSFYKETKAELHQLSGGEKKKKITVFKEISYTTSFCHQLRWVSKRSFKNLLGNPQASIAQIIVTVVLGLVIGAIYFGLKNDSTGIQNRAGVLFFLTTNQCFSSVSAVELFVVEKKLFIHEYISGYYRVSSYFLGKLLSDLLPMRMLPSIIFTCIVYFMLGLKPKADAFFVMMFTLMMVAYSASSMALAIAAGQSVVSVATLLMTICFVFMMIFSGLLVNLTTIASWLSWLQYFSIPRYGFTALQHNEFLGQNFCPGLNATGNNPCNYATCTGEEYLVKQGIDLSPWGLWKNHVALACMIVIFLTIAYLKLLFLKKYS
# Experimental: as §1
# [7] = Bidirectional transport assay, efflux ratio in Abcb1KO-MDCKII-Mock control cells; settings: dog, MDCK, pH 7.4
# Experimental: as §1
# rat Mdr1a [8] = target: T1, rat Mdr1a; test: Bidirectional transport assay, efflux ratio in Abcb1KO-MDCKII rMDR1 cells; settings: rat, pH 7.4
# Experimental: as §1
# human MDR1 [9] = target: T5, human MDR1 (Homo sapiens, UniProt P08183); test: Bidirectional transport assay, efflux ratio in Abcb1KO-MDCKII hMDR1 cells; settings: human, MDCK-MDR1, pH 7.4
# T5 sequence (P08183 whole entry): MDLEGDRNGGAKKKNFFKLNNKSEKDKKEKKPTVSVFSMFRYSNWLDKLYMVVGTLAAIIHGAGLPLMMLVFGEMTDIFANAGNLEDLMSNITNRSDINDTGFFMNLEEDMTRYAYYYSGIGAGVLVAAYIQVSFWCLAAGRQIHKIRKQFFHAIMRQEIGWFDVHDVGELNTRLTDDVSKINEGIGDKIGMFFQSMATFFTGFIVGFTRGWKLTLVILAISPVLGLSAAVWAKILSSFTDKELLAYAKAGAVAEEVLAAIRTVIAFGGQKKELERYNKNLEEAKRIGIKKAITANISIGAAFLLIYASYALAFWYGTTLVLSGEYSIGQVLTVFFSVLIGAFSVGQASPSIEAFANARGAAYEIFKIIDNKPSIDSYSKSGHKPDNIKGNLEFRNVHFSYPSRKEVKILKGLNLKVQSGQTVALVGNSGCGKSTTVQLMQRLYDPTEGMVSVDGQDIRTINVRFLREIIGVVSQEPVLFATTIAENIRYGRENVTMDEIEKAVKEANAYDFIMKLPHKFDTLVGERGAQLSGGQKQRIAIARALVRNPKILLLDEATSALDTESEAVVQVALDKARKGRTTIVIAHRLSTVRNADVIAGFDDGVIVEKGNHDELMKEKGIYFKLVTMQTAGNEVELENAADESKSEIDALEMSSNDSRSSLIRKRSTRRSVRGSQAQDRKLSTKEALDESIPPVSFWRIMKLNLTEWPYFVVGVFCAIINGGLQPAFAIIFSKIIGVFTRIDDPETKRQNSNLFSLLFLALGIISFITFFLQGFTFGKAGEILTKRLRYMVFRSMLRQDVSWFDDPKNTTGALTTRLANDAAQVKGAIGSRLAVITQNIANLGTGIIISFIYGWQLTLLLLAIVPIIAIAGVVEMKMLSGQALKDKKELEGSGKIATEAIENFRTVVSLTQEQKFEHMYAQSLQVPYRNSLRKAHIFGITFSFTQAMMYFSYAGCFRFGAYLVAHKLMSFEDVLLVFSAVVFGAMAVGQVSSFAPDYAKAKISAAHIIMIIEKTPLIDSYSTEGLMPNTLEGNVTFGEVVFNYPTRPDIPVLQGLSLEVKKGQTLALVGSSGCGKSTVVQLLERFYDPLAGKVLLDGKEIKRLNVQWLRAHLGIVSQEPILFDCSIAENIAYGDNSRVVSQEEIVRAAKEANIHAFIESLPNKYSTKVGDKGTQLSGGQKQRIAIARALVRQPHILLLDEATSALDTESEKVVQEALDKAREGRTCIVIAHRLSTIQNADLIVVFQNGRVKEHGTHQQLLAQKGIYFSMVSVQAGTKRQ
# Experimental: as §1
# human MDR1 [10] = target: T5, human MDR1; test: Inhibition of 3H-digoxin or 3H-quinidine bidirectional transport in hMDR1 cells; settings: IC50 from ER
# [11] = Inhibition of digoxin transport IC50±SD, rMDR1, probe 3H-digoxin 1 µM, 120 min
# [12] = Inhibition of quinidine transport IC50±SD, rMDR1, probe 3H-quinidine 1 µM, 30 min
# [13] = Inhibition of digoxin transport IC50±SD, mMDR1, probe 3H-digoxin 1 µM, 120 min
# [14] = probe 3H-quinidine 1 µM, 60 min
Compound,"efflux ratio at 120 min, 1 µM (mouse Mdr1a [5])","efflux ratio at 120 min, 1 µM (cynomolgus monkey Mdr1 [6])","efflux ratio at 120 min, 1 µM (human BCRP)","efflux ratio at 120 min, 1 µM [7]","efflux ratio at 120 min, 1 µM (rat Mdr1a [8])","efflux ratio at 120 min, 1 µM (human MDR1 [9])",also measured
COc1cc2c(cc1OC)CN(CCc1ccc(NC(=O)c3cccc4c(=O)c5cccc(OC)c5[nH]c34)cc1)CC2 [Elacridar],,,,,,,"IC50 (rat Mdr1a [1]; [11]): 320 ± 150 nM; IC50 (rat Mdr1a [1]; [12]): 60 nM; IC50 (cynomolgus monkey Mdr1 [2]): 90 ± 30 nM; IC50 (cynomolgus monkey Mdr1 [3]): 110 ± 80 nM; IC50 (mouse Mdr1a [4]; [13]): 100 ± 70 nM; IC50 (mouse Mdr1a [4]; Inhibition of quinidine transport IC50±SD, mMDR1, probe 3H-quinidine 1 µM, 60 min): 200 ± 40 nM"
COCCc1ccc(OCC(O)CNC(C)C)cc1 (stereo not shown) [Metoprolol],0.92 ± 0.08,0.74 ± 0.05,0.71 ± 0.11,0.74 ± 0.05,0.97 ± 0.11,1.53 ± 0.15,
Cc1cccc(C)c1OCC(C)N (stereo not shown) [Mexiletine],0.64 ± 0.16,0.51 ± 0.15,0.71 ± 0.05,0.36 ± 0.05,0.42 ± 0.08,0.44 ± 0.03,
Cc1ncc2n1-c1ccc(Cl)cc1C(c1ccccc1F)=NC2 [Midazolam],0.4 ± 0.06,0.43 ± 0.05,0.57 ± 0.06,0.43 ± 0.04,0.28 ± 0.06,0.53 ± 0.03,
O=C1c2c(O)ccc(O)c2C(=O)c2c(NCCNCCO)ccc(NCCNCCO)c21 [Mitoxantrone],28.6 ± 4.05,40.3 ± 2.47,55.6 ± 10.8,1.15 ± 0.14,17.6 ± 1.56,5.66 ± 0.54,
CC(=O)O[C@H]1C(=O)[C@@]2(C)[C@H]([C@H](OC(=O)c3ccccc3)[C@]3(O)C[C@H](OC(=O)[C@H](O)[C@@H](NC(=O)c4ccccc4)c4ccccc4)C(C)=C1C3(C)C)[C@]1(OC(C)=O)CO[C@@H]1C[C@@H]2O [Paclitaxel],57.7 ± 17,33.4 ± 5.69,63.8 ± 28.5,2.52 ± 0.51,82.9 ± 41.1,40.2 ± 12.6,
Cc1nc2n(c(=O)c1CCN1CCC(c3noc4cc(F)ccc34)CC1)CCCC2O (stereo not shown) [Paliperidone],8.26 ± 0.88,2.47 ± 0.41,5.82 ± 1.79,0.79 ± 0.1,6.06 ± 1.45,19.8 ± 2.06,
CN(C)CCC(c1ccccc1)c1ccccn1 (stereo not shown) [Pheniramine],1.1 ± 0.1,0.99 ± 0.02,1.02 ± 0.03,0.78 ± 0.04,1.09 ± 0.03,1.45 ± 0.05,
COc1cc2nc(N3CCN(C(=O)c4ccco4)CC3)nc(N)c2cc1OC [Prazosin],5.14 ± 0.39,2.42 ± 0.15,,0.72 ± 0.03,6.5 ± 0.22,9.35 ± 0.45,"ER in MDCKII BCRP (human BCRP; 1 µM, 120 min, mean ± SD): 14.79 ± 1.68"
C[C@]12C=CC(=O)C=C1CC[C@@H]1[C@@H]2C(=O)C[C@@]2(C)[C@H]1CC[C@]2(O)C(=O)CO [Prednisone],6.6 ± 0.57,4.41 ± 0.52,1.33 ± 0.1,0.82 ± 0.11,9.6 ± 1.82,17.3 ± 2.38,
CC(C)NCC(O)COc1cccc2ccccc12 (stereo not shown) [Propranolol],0.92 ± 0.1,0.66 ± 0.06,0.71 ± 0.15,0.54 ± 0.06,0.73 ± 0.08,0.88 ± 0.08,
C=C[C@H]1C[N@@]2CC[C@H]1C[C@@H]2[C@@H](O)c1ccnc2ccc(OC)cc12 [Quinidine],,,,,,,IC50 (rat Mdr1a [1]; [11]): 2930 ± 1430 nM; IC50 (mouse Mdr1a [4]; [13]): 15000 ± 4060 nM
CNC(=C[N+](=O)[O-])NCCSCc1ccc(CN(C)C)o1 [Ranitidine],2.09 ± 0.3,2.14 ± 0.25,10.3 ± 0.96,0.91 ± 0.06,2.63 ± 0.19,2.89 ± 0.15,
CC(C)(C)NC(=O)[C@@H]1C[C@@H]2CCCC[C@@H]2CN1C[C@@H](O)[C@H](Cc1ccccc1)NC(=O)[C@H](CC(N)=O)NC(=O)c1ccc2ccccc2n1 [Saquinavir],,,,,,,IC50 (rat Mdr1a [1]; [11]): 25000 ± 11400 nM; IC50 (rat Mdr1a [1]; [12]): 12300 ± 5020 nM; IC50 (cynomolgus monkey Mdr1 [2]): 12300 ± 5440 nM; IC50 (cynomolgus monkey Mdr1 [3]): 20700 ± 7670 nM
CN[C@H]1CC[C@@H](c2ccc(Cl)c(Cl)c2)c2ccccc21 [Sertraline],2.93 ± 0.43,5.65 ± 0.81,3.7 ± 0.67,3.57 ± 0.3,2.74 ± 0.28,3.1 ± 0.34,
Nc1c2c(nc3ccccc13)CCCC2 [Tacrine],0.99 ± 0.03,0.83 ± 0.02,1.19 ± 0.07,0.81 ± 0.02,0.88 ± 0.02,0.93 ± 0.04,
CC/C(=C(\c1ccccc1)c1ccc(OCCN(C)C)cc1)c1ccccc1 [Tamoxifen],2.26 ± 0.76,1.81 ± 0.51,0.81 ± 0.14,2.25 ± 1.24,1.61 ± 0.18,1.65 ± 0.24,
CC(C)(C)c1ccc(C(O)CCCN2CCC(C(O)(c3ccccc3)c3ccccc3)CC2)cc1 (stereo not shown) [Terfenadine],2.64 ± 0.33,0.92 ± 0.14,2.96 ± 0.31,0.88 ± 0.06,1.29 ± 0.14,10.7 ± 0.78,
O=c1n(CCCN2CCN(c3cccc(Cl)c3)CC2)nc2ccccn12 [Trazodone],0.98 ± 0.24,1.5 ± 0.1,0.86 ± 0.11,2.66 ± 0.59,1.4 ± 0.16,1.71 ± 0.34,
CC[C@]1(O)C[C@@H]2CN(CCc3c([nH]c4ccccc34)[C@@](C(=O)OC)(c3cc4c(cc3OC)N(C)[C@H]3[C@@](O)(C(=O)OC)[C@H](OC(C)=O)[C@]5(CC)C=CCN6CC[C@]43[C@@H]65)C2)C1 [Vinblastine],50.5 ± 6.89,61.4 ± 7.47,22.9 ± 4.47,1.32 ± 0.28,61.2 ± 5.31,51.6 ± 5.3,
CN(C)CCc1c[nH]c2ccc(C[C@H]3COC(=O)N3)cc12 [Zolmitriptan],1.99 ± 0.16,2.24 ± 0.22,3.94 ± 0.25,0.97 ± 0.09,2.69 ± 0.16,4.3 ± 0.26,
CC(C)(C)NCC(O)COc1ccc(NC(=O)NC2CCCCC2)cc1 (stereo not shown) [talinolol],,,,,,,"Inhibition of digoxin transport IC50±SD, rMDR1 (rat Mdr1a [1]; probe 3H-digoxin 1 µM, 120 min): no inhibition; Inhibition of quinidine transport IC50±SD, rMDR1 (rat Mdr1a [1]; probe 3H-quinidine 1 µM, 30 min): no inhibition; Inhibition of digoxin transport IC50±SD, hMDR1 (human MDR1 [10]; probe 3H-digoxin 1 µM, 120 min): no inhibition; Inhibition of quinidine transport IC50±SD, hMDR1 (human MDR1 [10]; [14]): no inhibition; Inhibition of quinidine transport IC50±SD, cyMDR1 (cynomolgus monkey Mdr1 [3]; probe 3H-quinidine 0.1 µM): no inhibition; Inhibition of digoxin transport IC50±SD, mMDR1 (mouse Mdr1a [4]; probe 3H-digoxin 1 µM, 120 min): no inhibition; Inhibition of quinidine transport IC50±SD, mMDR1 (mouse Mdr1a [4]; [14]): no inhibition"
